Patent publication US6835752B2, “Carboxylic acid derivatives, processes for the preparation thereof and pharmaceutical agents comprising the same as active ingredient” (Ono Pharmaceutical Co., Ltd., priority 2000, dated 2004)

Key:
Settings in all cases: CHO cell membrane fraction, competition with [3H]-PGE2 2.5 nM
mouse EP1 receptor = molecular target: T1, mouse EP1 receptor (Mus musculus, UniProt P35375); test: Binding assay using cell expressing the prostanoid receptor subtypes (EP1)
T1 construct: expressed in transfected cells; host or cells: CHO cells
T1 sequence (P35375 1-405): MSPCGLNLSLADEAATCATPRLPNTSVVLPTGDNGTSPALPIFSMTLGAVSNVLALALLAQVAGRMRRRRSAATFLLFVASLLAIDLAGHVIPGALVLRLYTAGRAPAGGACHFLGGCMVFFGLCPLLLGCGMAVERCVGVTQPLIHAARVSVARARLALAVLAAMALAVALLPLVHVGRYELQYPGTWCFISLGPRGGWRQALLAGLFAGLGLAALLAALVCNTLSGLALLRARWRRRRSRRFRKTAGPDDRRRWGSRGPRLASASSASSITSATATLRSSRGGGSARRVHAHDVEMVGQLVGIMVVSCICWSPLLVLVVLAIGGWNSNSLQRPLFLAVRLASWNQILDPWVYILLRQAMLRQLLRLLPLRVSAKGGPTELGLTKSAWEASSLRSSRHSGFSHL
Method: (§1) (i) Binding Assay Using Cell Expressing the Prostanoid Receptor Subtypes
(§2) The preparation of membrane fraction was carried out according to the method of Sugimoto et al [J. Biol. Chemical, 267, 6463-6466 (1992)], using CHO cell expressing prostanoid receptor subtypes (mouse EP1, EP2, EP3α, and EP4).
(§3) The standard assay mixture containing membrane fraction (50 μL), [^3H]—PGE2 in a final volume of 150 μL was incubated for 1 hour at room temperature. The reaction was terminated by addition of 3 mL of ice-cold buffer. The mixture was rapidly filtered through a glass filter (GF/B) under reduced pressure. The radioactivities associated with the filters were measured by liquid scintillation counter.
(§4) Kd and Bmax values were determined from Scatchard plots [Ann. N. Y. Acad. Sci. 51, 660(1949)]. Non-specific binding was determined as the amount bound in the presence of an excess (2.5 μM of unlabeled PGE2. In the experiment for competition of specific [^3H]—PGE2 binding assay, [^3H]—PGE2, was added at a concentration of 2.5 nM and a test compound of the present invention was added at various concentrations. The following buffer was used in all reactions.
(§5) Buffer: 10 mM potassium phosphate (pH 6.0), 1 mM EDTA, 10 mM MgCl2, 0.1 M NaCl.
(§6) The inhibition constant (Ki) (μM) of each compound was calculated by the following equation.

mouse EP2 receptor = molecular target: T2, mouse EP2 receptor (Mus musculus, UniProt Q62053); test: Binding assay using cell expressing the prostanoid receptor subtypes (EP2)
T2 construct: expressed in transfected cells; host or cells: CHO cells
T2 sequence (Q62053 whole entry): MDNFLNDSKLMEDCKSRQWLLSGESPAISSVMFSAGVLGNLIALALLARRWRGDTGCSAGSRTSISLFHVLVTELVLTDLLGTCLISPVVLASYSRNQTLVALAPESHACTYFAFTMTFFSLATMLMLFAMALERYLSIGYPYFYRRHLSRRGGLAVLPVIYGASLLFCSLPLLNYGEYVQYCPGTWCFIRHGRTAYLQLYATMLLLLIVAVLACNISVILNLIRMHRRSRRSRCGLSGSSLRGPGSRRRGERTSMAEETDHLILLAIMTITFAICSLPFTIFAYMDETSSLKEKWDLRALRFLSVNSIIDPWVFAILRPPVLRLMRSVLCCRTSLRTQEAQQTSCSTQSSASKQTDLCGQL
Method: as §1, §2, §3, §4, §5, §6

mouse EP4 receptor = molecular target: T3, mouse EP4 receptor (Mus musculus, UniProt P32240); test: Binding assay using cell expressing the prostanoid receptor subtypes (EP4)
T3 construct: expressed in transfected cells; host or cells: CHO cells
T3 sequence (P32240 whole entry): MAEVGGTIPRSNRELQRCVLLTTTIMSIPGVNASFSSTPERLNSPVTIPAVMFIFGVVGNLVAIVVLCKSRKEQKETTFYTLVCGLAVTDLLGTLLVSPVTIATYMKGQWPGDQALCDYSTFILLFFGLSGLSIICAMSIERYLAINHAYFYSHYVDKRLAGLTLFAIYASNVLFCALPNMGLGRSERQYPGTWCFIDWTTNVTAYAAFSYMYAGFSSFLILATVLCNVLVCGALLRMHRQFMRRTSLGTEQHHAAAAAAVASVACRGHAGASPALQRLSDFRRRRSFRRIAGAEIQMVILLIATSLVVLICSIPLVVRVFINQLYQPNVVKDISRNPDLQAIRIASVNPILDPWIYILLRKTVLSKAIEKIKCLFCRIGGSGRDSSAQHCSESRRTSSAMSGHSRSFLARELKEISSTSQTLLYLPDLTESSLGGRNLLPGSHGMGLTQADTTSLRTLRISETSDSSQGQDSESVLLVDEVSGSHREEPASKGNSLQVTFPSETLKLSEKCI
Method: as §1, §2, §3, §4, §5, §6

mouse EP3α receptor = molecular target: T4, mouse EP3α receptor (Mus musculus, UniProt P30557); test: Binding assay using cell expressing the prostanoid receptor subtypes (EP3)
T4 construct: expressed in transfected cells; host or cells: CHO cells
T4 sequence (P30557 1-365): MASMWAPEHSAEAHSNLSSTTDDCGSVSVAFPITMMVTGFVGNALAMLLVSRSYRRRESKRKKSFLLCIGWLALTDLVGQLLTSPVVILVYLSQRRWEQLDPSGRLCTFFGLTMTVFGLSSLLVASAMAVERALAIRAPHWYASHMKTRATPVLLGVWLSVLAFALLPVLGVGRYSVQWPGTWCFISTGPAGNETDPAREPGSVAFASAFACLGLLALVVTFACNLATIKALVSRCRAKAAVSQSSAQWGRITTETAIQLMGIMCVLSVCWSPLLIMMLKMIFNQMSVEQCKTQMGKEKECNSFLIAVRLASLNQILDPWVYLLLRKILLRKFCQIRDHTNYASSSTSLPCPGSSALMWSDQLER
Method: as §1, §2, §3, §4, §5, §6

Ki (mouse EP1 receptor): > 10 µM
Ki (mouse EP2 receptor): > 10 µM
Ki (mouse EP4 receptor): 0.3 µM
Ki (mouse EP3α receptor): 2.4 µM
SMILES: CC(C(=O)Nc1ccccc1CCCC(=O)O)c1cccc2ccccc12 (stereo not shown) [Example 2, 4-[2-[2-(1-naphthyl)propanoylamino]phenyl]butanoic acid]
